Values after ≈ are worked out from the molar mass of the structure shown. Where two headings read alike, the source gives them in different places.

The values that follow come from article PMC3740683, “ML212: A small-molecule probe for investigating fluconazole resistance mechanisms in Candida albicans” (Beilstein Journal of Organic Chemistry, 2013).

Data set [1] deals with CaCi-8. Also on record: method as in PMID 8161633. As to conditions: CaCi-8 clinical isolate; cited from earlier work.
For data set [2], the system named is CaCi-2. Details: method as in PMID 8161633. The conditions noted are these: CaCi-2 clinical isolate; cited from earlier work.
Data set [3] concerns C. albicans CaCi-8. The experiment in a line: Secondary assay 1: CaCi-8 with 8 µg/mL fluconazole (Alamar Blue growth). The conditions noted are these: Candida albicans. The format is cell-based, Candida albicans. On the procedure:
All of the compounds prepared above were evaluated for their ability to chemosensitize the C. albicans test strains CaCi-2 and CaCi-8 towards fluconazole. […] The DMSO/fluconazole combination served as an internal control. […]
(1/OD measured) × (desired final volume of inoculum) × 0.3 = volume of fungal culture (µL) to add to desired volume of growth medium. When added to media in wells, this yields a calculated starting OD of the fungal inoculum of 0.00015. […]
3) Use a Thermo Combi nL to dispense 20 µL/well of assay media into all wells. […]
EnVision (Perkin Elmer) plate reader setup: Ex 544 nm, Em 590 nm, bandwidth 12 nm, top read.
Secondary assay 1: CaCi-8 with 8 µg/mL fluconazole […]
35808016); geldanamycin (AG Scientific Catalog no. […]
PBS w/o calcium and magnesium (Cellgro Catalog no. 21-040-CV)
(§1) Synthetic defined growth medium
(§2) RPMI 1640 medium, (powder without sodium bicarbonate; Invitrogen Catalog no. […]
no. 028K0760); glucose 40% (w/v) in water (Sigma Catalog no. G-5400); MOPS buffer […]
1) Prepare 1× RPMI medium by dissolving 10.4 g powdered medium in 800 mL […]
(§3) 2) Add 34.52 g MOPS. While stirring, adjust pH to 7.0 with 10 N NaOH.
(§4) 3) Add 10 mL uridine solution, 50 mL glucose solution, adjust final volume to 1000 […]
Test strain: C. albicans CaCi-8
1) Inoculate 500 µL of strain from cryopreserved stock into a 250 mL shaker flask containing 30 mL growth medium. Shake at 30 °C overnight (16 hours).
2) Read OD 600 of 1 mL of fungal culture in a cuvette using a standard optical density reader (Eppendorf BioPhotometer Plus), with growth medium as a […]
3) Dilute to a desired volume of fungal inoculum according to following formula: […]
1) Add fluconazole stock solution to fungal inoculum to achieve 8 µg/mL.
2) Add Pen/Strep to media to 1% concentration.
4) Dispense geldanamycin in positive control wells using Thermo Combi nL for a final concentration of 3 µM.
5) Then, pin 100 nL of test compound from compound plates into assay plates using a CyBi-Well pin tool.
6) Dispense 20 µL/well of culture into the assay media in all wells.
7) Incubate the plates in a humidified (90% humidity) Liconic incubator at 37 °C without agitation for 48 hours.
8) Dilute Alamar Blue 1:40 in Ca/Mg-free PBS.
9) To all plates, add 5 µL/well of the diluted Alamar Blue to plates to a final dilution […]
10) Incubate the plates for 2 hours. […]
(The colour change of resazurin is a common sign of viable cells or microbes.)

Data set [4] in a line: Solubility in PBS. The format is physicochemical. The conditions noted are these: aqueous buffer.
Data set [5] can be described thus: Secondary assay 3: fibroblast toxicity. As to conditions: mouse, NIH-3T3 fibroblasts, murine 3T3 fibroblasts. The format is cell-based. Here is the method: 11) Read relative fluorescence intensity (RFU) of wells on a standard plate reader as […]
measure of relative fungal growth. EnVision (Perkin Elmer) plate reader settings: […]
Secondary assay 3: fibroblast toxicity
Clear, flat-bottom, black, 384-well plates (Corning Catalog no. 3712BC Lot no.
35808016); geldanamycin (AG Scientific Catalog no. G-1047) 15 mM stock solution in […]
DMSO; fluconazole (Sequoia Research Ltd.) 2 mg/mL stock solution in PBS; Alamar […]
Blue (AG Scientific Catalog no. DAL1100, Lot no. 151016SA); PBS w/o calcium and […]
magnesium (Cellgro Catalog no. 21-040-CV)
Optimem medium (Invitrogen Catalog no. 31985-070; Lot no. 548536); 2.5% (v/v) fetal […]
bovine serum (Hyclone Catalog no.30071.03; Lot no. ARF26748); 1% (v/v) Pen/Strep […]
Test strain: NIH-3T3 mammalian fibroblasts (ATCC CRL No. 1658) […]
1) Plate cells in 384-well plates at 6,000 cells/well in 20 µL assay medium.
2) Incubate plates overnight at 37 °C under 5% CO2.
1) After overnight culture, pin compounds into wells at 100 nL/well using the CyBio […]
CyBi-Well pinning instrument.
2) After pinning compounds, add 20 µL of assay medium supplemented with […]
fluconazole to each well. […]
6) Read the relative fluorescence intensity (RFU) of wells on a standard plate reader as a measure of relative cell growth. EnVision (Perkin Elmer) plate reader […]
setup: Ex 544 nm, Em […], bandwidth12 nm, top read.

For data set [6], the system named is C. albicans CaCi-2. Put plainly: Primary screen and dose-response retest: CaCi-2 with 8 µg/mL fluconazole (Alamar Blue growth). The format is cell-based, Candida albicans. The conditions noted are these: Candida albicans, CACI2. Here is the method: All of the compounds prepared above were evaluated for their ability to chemosensitize the C. albicans test strains CaCi-2 and CaCi-8 towards fluconazole. […] The DMSO/fluconazole combination served as an internal control.
Protocols for cellular assays
Primary screen and dose-response retest: CaCi-2 with 8 µg/mL fluconazole […]
Clear, flat-bottom, black, 384-well plates (Corning Catalog no. 3712BC; Lot no. […]
DMSO; Fluconazole (Sequoia Research Products Ltd) 2 mg/mL stock solution in PBS; […]
(AG Scientific Catalog no. DAL 1100; Lot no.151016SA); PBS without calcium and magnesium (Cellgro Catalog no. 21-040-CV)
as §1, §2
no. 028KO760); Glucose 40% (w/v) in water (Sigma Catalog no. G-5400); MOPS buffer […]
1) Prepare 1× RPMI medium by dissolving 10.4 grams powdered medium in 800 […]
as §3, §4
Test Strain: C. albicans CaCi-2
1) Inoculate 500 µL of strain from cryopreserved stock into a 250 mL shaker flask containing 30 mL growth medium. Shake at 30 °C overnight.
2) Read OD 600 of 1 mL fungal culture in a cuvette using a standard optical density reader (Eppendorf BioPhotometer Plus), with growth medium as a background […]
3) Dilute to desired volume of fungal inoculums according to the following formula:
(1/OD measured) × (desired final volume of inoculum) × 0.3 = volume of fungal culture (µL) to add to desired volume of growth medium. When added to media in wells, this yields a calculated starting OD of the fungal inoculum of 0.00015.
1) Add fluconazole stock solution to fungal inoculum to achieve a final concentration […]
2) Add Pen/Strep at 0.1 mL per 10 mL media (1% v/v).
3) Use a Thermo Combi nL to dispense 20 µL/well of assay media into all wells.
4) Pin 25 nL test compound from compound plates into assay plates using CyBi- […]
5) Dispense 20 µL/well of culture into the assay media in all wells.
6) Incubate plates in a humidified (90% humidity) Liconic incubator at 37 °C without […]
7) Dilute Alamar Blue Reagent 1:40 in Ca/Mg-free PBS.
8) To all plates, add 5 µL/well of the diluted Alamar to a final dilution factor of 1:200.
9) Incubate the plates for an additional 2 hours.
10) Read the relative fluorescence intensity (RFU) of wells on a standard plate reader as a measure of relative fungal growth. EnVision (Perkin Elmer) plate reader setup: Ex 544 nm, Em 590 nm, bandwidth 12 nm, top read. […]

For the compound `OC(Cn1cncn1)(Cn1cncn1)c1ccc(F)cc1F` [fluconazole], the “minimum inhibitory concentration (MIC)” value in data set [1] is 8 µg/mL (≈ 26.1 µM); in data set [2], 2 µg/mL (≈ 6.53 µM).

On to `COC(=O)Cn1nc(-c2ccccc2)c2ccccc21` [Compound 1], for which the IC50 in data set [3] (CACI8, 48 h, read-out: CaCi-8 IC50) was determined as 3500 ± 1900 nM; in data set [3] (CACI8, read-out: CaCi-8 IC50), 2300 nM; in data set [6] (37 °C, 48 hours, with test compound and 8 µg/mL (26 µM) fluconazole, average of at least three independent experiments in duplicate, inactive = negligible activity at concentrations below 26 µM), 2200 ± 1000 nM; in data set [6] (commercial sample, hit revalidation, with 8 µg/mL fluconazole) it was 800 nM. In data set [4], this compound yielded a solubility of 79 µM (≈ 21 µg/mL). The same compound showed an IC50 at 48 h in data set [5] above 26000 nM.

By IC50 is commonly meant the concentration at which inhibition is half-maximal. By solubility is commonly meant the concentration that dissolves in the medium under given conditions.
